Source: paper PMC5537699 (ACS Omega, 2017)
Like-named read-outs stand apart in the source and are kept apart here. One block for each compound: values may come before it.

Assays:
[1] = target: pig kidney Na+/K+-ATPase (PKE) (Sus scrofa, UniProt P05024); experiment: Na+/K+-ATPase activity assay, purified pig kidney enzyme; type: biochemical; conditions: for Ki: 1% DMSO, PKE-1 or PKE-2, optimal turnover conditions (Figure 3)
[2] = target: human kidney Na+/K+-ATPase (HKE) (Homo sapiens, UniProt P05023); experiment: Na+/K+-ATPase activity assay, purified human kidney enzyme; type: biochemical; conditions: for Ki: read-out: Ki, inhibition of Na+/K+-ATPase activity of HKE-1, HKE-1, 1% DMSO, optimal turnover conditions (Figure 4A)
[3] = system: recombinant human kidney enzyme (Na+/K+-ATPase); conditions: ref 14 (Katz et al., their Table 1); cited from earlier work
[4] = nearly constant levels by appropriate dosage regimens; cited from earlier work
[5] = system: purified PKE (pig kidney Na+/K+-ATPase); conditions: ref 11 (Laursen et al., their Figure 3); cited from earlier work
[6] = read-out: Ki, inhibition of Na+/K+-ATPase activity of PKE

Structure (SMILES): C[C@]12CC[C@H](O)C[C@@]1(O)CC[C@@H]1[C@@H]2CC[C@]2(C)[C@@H](c3ccc(=O)oc3)C[C@H]3O[C@]132 [MBG, marinobufagenin]
Ki [1, 6]: 1500 ± 120 nM | potency relative to ouabain in Na+/K+-ATPase activity assays ([2]; HKE-1 (Figure 4A)): equally potent | Ki [2]: 1070 ± 40 nM | fold less potent than ouabain by relative binding constants [3]: about 200 fold

Ki ([1]; Ki, inhibition of Na+/K+-ATPase activity of PKE): 1950 ± 150 nM
Structure (SMILES): C[C@H]1O[C@@H](O[C@H]2[C@@H](O)C[C@H](O[C@H]3[C@@H](O)C[C@H](O[C@H]4CC[C@@]5(C)[C@H](CC[C@@H]6[C@@H]5C[C@@H](O)[C@]5(C)[C@@H](C7=CC(=O)OC7)CC[C@]65O)C4)O[C@@H]3C)O[C@@H]2C)C[C@H](O)[C@@H]1O [digoxin]
blood levels when used clinically [4]: 0.64 to 1.15 nM

Structure (SMILES): C[C@]12C[C@@H](O)[C@H]3[C@@H](CC[C@]4(O)C[C@@H](O)C[C@@H](O)[C@]34CO)[C@@]1(O)CC[C@@H]2C1=CC(=O)OC1 [ouabagenin]
extent of inhibition of Na+/K+-ATPase activity ([1]; PKE (Figure 3)): complete inhibition | fold less potent than ouabain in Na+/K+-ATPase activity assays ([1]; PKE (Figure 3)): about 3 fold | Ki [1, 6]: 3070 ± 230 nM | Ki [2]: 4400 ± 270 nM | extent of inhibition of the enzyme [5]: only a partial inhibitor | fold less potent than ouabain by relative binding constants [5]: about 800 fold

Structure (SMILES): C[C@@H]1O[C@@H](O[C@H]2C[C@@H](O)[C@]3(CO)[C@H]4[C@H](O)C[C@]5(C)[C@@H](C6=CC(=O)OC6)CC[C@]5(O)[C@@H]4CC[C@]3(O)C2)[C@H](O)[C@H](O)[C@H]1O [ouabain]
preincubation time sufficient to obtain the maximal inhibitory effect ([1]; PKE-1, incubation times 10–60 min, 0.25–1000 μM): 10 min | ouabain sensitivity of large-scale PKE preparation versus single kidney PKEs ([1]; large-scale PKE, specific activity 1035 μmol Pi mg–1 h–1, results not shown): not significantly different
